# Where two headings read alike, the source gives them in different places.
# Test system: modifizierten Shay-Ratte
# Assay: Antiulcerogenic and secretion-inhibiting effect in the modified Shay rat (pylorus ligation + oral acetylsalicylic acid)
# Assay type: in vivo
# Details: for Magenschutzwirkung: Minderung des Läsionsindexes (%) / Säuresekretionshemmung: Verringerung der HCl-Sekretion (%): versus control group, 4 h after pylorus ligation; for ED50: iv, 4 h, i.v.
# From the text: Prüfung der antiulcerogenen und sekretionshemmenden Wirkung an der modifizierten Shay-Ratte
# In der folgenden Tabelle 1 ist der Einfluß der erfindungsgemäßen Verbindungen nach intravenöser (i. v.) Gabe auf die Läsionsbildung sowie die Säureausscheidung bei der modifizierten Shay-Ratte dargestellt.
# Die Ulcusprovokation erfolgt an 24 Stunden nüchternen Ratten (weiblich, 180-200 g, 4 Tiere je Käfig auf hohem Gitterrost) durch Pylorusligatur (unter Diethylethernarkose) und orale Applikation von 100 mg/10ml/kg Acetylsalicylsäure. Die zu prüfenden Substanzen werden intravenös (1 ml/kg) unmittelbar nach der Pylorusligatur verabreicht. Der Wundverschluß wird mittels Michelklammern vorgenommen. 4 Stunden danach erfolgt die Tötung der Tiere im Etherrausch durch Atlas-Dislokation und die Resektion des Magens.
# Der Magen wird längs der großen Kurvatur eröffnet und auf einer Korkplatte aufgespannt, nachdem zuvor die Menge des sezernierten Magensaftes (Volumen) und später sein HCl-Gehalt (Titration mit Natronlauge) bestimmt wird. Mit einem Stereomikroskop werden bei 10-facher Vergrößerung Anzahl und Größe (=Durch-messer) vorhandener Ulcera ermittelt. Das Produkt aus Schweregrad (gemäß nachfolgender Punkteskala) und Anzahl der Ulcera dient als individueller Läsionsindex.
# Als Maß für den antiulcerogenen Effekt dient die Minderung des mittleren Lä-sionsindex jeder behandelten Gruppe gegenüber dem der Kontrollgruppe (=100 %). Die ED50 bezeichnet diejenige Dosis, die den mittleren Lösionsindex bzw. die HCl-Sektetion gegenüber der Kontrolle um 50 % mindert.
# [1] = Rattus norvegicus, interpolated dose reducing the lesion index by 50 % versus control group, read-out: Magenschutzwirkung: ca. ED50 (µmol/kg) i.v.
# [2] = interpolated dose reducing the HCl secretion of the rat stomach by 50 % versus control group, read-out: Säuresekretionshemmung: ca. ED50 (µmol/kg) i.v.
SMILES,"Magenschutzwirkung: Minderung des Läsionsindexes (%) (Dosis 0,1 µmol/kg i.v.)","Säuresekretionshemmung: Verringerung der HCl-Sekretion (%) (Dosis 0,1 µmol/kg i.v.)","Magenschutzwirkung: Minderung des Läsionsindexes (%) (Dosis 0,3 µmol/kg i.v.)","Säuresekretionshemmung: Verringerung der HCl-Sekretion (%) (Dosis 0,3 µmol/kg i.v.)","Magenschutzwirkung: Minderung des Läsionsindexes (%) (Dosis 1,0 µmol/kg i.v.)","Säuresekretionshemmung: Verringerung der HCl-Sekretion (%) (Dosis 1,0 µmol/kg i.v.)","Magenschutzwirkung: Minderung des Läsionsindexes (%) (Dosis 3,0 µmol/kg i.v.)","Säuresekretionshemmung: Verringerung der HCl-Sekretion (%) (Dosis 3,0 µmol/kg i.v.)","Magenschutzwirkung: Minderung des Läsionsindexes (%) (Dosis 10,0 µmol/kg i.v.)","Säuresekretionshemmung: Verringerung der HCl-Sekretion (%) (Dosis 10,0 µmol/kg i.v.)",ED50 [1] [µmol/kg],ED50 [2] [µmol/kg],"Magenschutzwirkung: Minderung des Läsionsindexes (%) (Dosis 0,03 µmol/kg i.v.)","Säuresekretionshemmung: Verringerung der HCl-Sekretion (%) (Dosis 0,03 µmol/kg i.v.)"
"Cc1nc2c(OC3CCc4ccccc43)cccn2c1C (stereo not drawn) [Beispiel 1, 8-(2,3-Dihydro-1-indenyloxy)-2,3-dimethyl-imidazo[1,2-a]pyridin]",40,19,58,21,75,40,100,62,100,78,~0.2,~1.93,,
"Cc1nc2c(OC3CCc4ccccc43)cccn2c1CC#N (stereo not drawn) [Beispiel 4, 3-Cyanomethyl-8-(2,3-dihydro-1-indenyloxy)-2-methyl-imidazo[1,2-a]pyridin]",47,-10,64,26,86,27,100,83,,,~0.1,~1.34,38,3

# From patent EP0290003A2, “Imidazoles” (Byk Gulden Lomberg Chemische Fabrik GmbH, priority 1987, dated 1988)
